# Patent publication US11117900B2 (Vertex Pharmaceuticals Incorporated, priority 2012, dated 2021)
# Test system: HCT116 colorectal cancer cells
# Test: Cisplatin sensitization assay (96 h MTS cell viability);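 also: compound concentration needed to lower the IC50 of Cisplatin alone by a set fold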
# Assay type: cell-based
# Details: Cisplatin sensitization value
# Procedure, shortened: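 The MTS viability read, after 1 h with reagent, followed 96 h of co-treatment at 37° C. in 5% CO2. Both compound and cisplatin were titrated 2-fold from a 10 μM top final concentration in a complete concentration matrix on HCT116 cells. Scores +++/++/+ reflect cisplatin sensitization value ranges.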
row,Structure (SMILES),Cisplatin Sensitization Assay
1,"Nc1nn2cc(F)cnc2c1C(=O)Nc1cnccc1OC1CC[S+]([O-])CC1 (stereo not drawn) [I-O-44, 2-amino-6-fluoro-N-(4-((1-oxidotetrahydro-2H-thiopyran-4-yl)oxy)pyridin-3-yl)pyrazolo[1,5-a]pyrimidine-3-carboxamide]",++ (Compounds with a Cisplatin sensitization value >0.02 μM but <0.2 μM are marked with “++.”)
2,"N#CCc1cnc2c(C(=O)Nc3cnccc3OC3CNC3)c(N)nn2c1 [I-O-82, 2-amino-N-(4-(azetidin-3-yloxy)pyridin-3-yl)-6-(cyanomethyl)pyrazolo[1,5-a]pyrimidine-3-carboxamide]",++ (Compounds with a Cisplatin sensitization value >0.02 μM but <0.2 μM are marked with “++.”)
3,"N#CCc1cnc2c(C(=O)Nc3cnccc3OCCN)c(N)nn2c1 [I-O-83, 2-amino-N-(4-(2-aminoethoxy)pyridin-3-yl)-6-(cyanomethyl)pyrazolo[1,5-a]pyrimidine-3-carboxamide]",+++ (Compounds with a Cisplatin sensitization value of <0.02 μM are marked with “+++.”)
4,"N#CCc1cnc2c(C(=O)Nc3cnccc3OC3CCNCC3)c(N)nn2c1 [I-O-84, 2-amino-6-(cyanomethyl)-N-(4-(piperidin-4-yloxy)pyridin-3-yl)pyrazolo[1,5-a]pyrimidine-3-carboxamide]",++ (Compounds with a Cisplatin sensitization value >0.02 μM but <0.2 μM are marked with “++.”)
5,"Nc1nn2cc(F)cnc2c1C(=O)Nc1cnccc1O[C@H]1CCCNC1 [I-O-85, (S)-2-amino-6-fluoro-N-(4-(piperidin-3-yloxy)pyridin-3-yl)pyrazolo[1,5-a]pyrimidine-3-carboxamide]",+++ (Compounds with a Cisplatin sensitization value of <0.02 μM are marked with “+++.”)
6,"N#CCc1cnc2c(C(=O)Nc3cnccc3O[C@@H]3CCNC3)c(N)nn2c1 [I-O-87, (R)-2-amino-6-(cyanomethyl)-N-(4-(pyrrolidin-3-yloxy)pyridin-3-yl)pyrazolo[1,5-a]pyrimidine-3-carboxamide]",++ (Compounds with a Cisplatin sensitization value >0.02 μM but <0.2 μM are marked with “++.”)
7,"CC(C)(C)Oc1ccncc1NC(=O)c1c(N)nn2cc(F)cnc12 [I-O-88, 2-amino-N-(4-(tert-butoxy)pyridin-3-yl)-6-fluoropyrazolo[1,5-a]pyrimidine-3-carboxamide]",+++ (Compounds with a Cisplatin sensitization value of <0.02 μM are marked with “+++.”)
8,"CN1CCC(Oc2c(F)cncc2NC(=O)c2c(N)nn3cc(F)cnc23)CC1 [I-O-89, 2-amino-6-fluoro-N-(5-fluoro-4-((1-methylpiperidin-4-yl)oxy)pyridin-3-yl)pyrazolo[1,5-a]pyrimidine-3-carboxamide]",++ (Compounds with a Cisplatin sensitization value >0.02 μM but <0.2 μM are marked with “++.”)
9,"CNc1cc(OC)c(NC(=O)c2c(N)nn3cc(F)cnc23)cn1 [I-O-90, 2-amino-6-fluoro-N-(4-methoxy-6-(methylamino)pyridin-3-yl)pyrazolo[1,5-a]pyrimidine-3-carboxamide]",+ (Compounds with a Cisplatin sensitization value >0.2 μM but <5 μM are marked with “+.”)
10,"Nc1nn2cc(F)cnc2c1C(=O)Nc1cncc(F)c1OC1CCN(C2COC2)CC1 [I-O-91, 2-amino-6-fluoro-N-(5-fluoro-4-((1-(oxetan-3-yl)piperidin-4-yl)oxy)pyridin-3-yl)pyrazolo[1,5-a]pyrimidine-3-carboxamide]",++ (Compounds with a Cisplatin sensitization value >0.02 μM but <0.2 μM are marked with “++.”)
11,"Nc1nn2cc(F)cnc2c1C(=O)Nc1cnccc1OC1COC1 [I-O-92, 2-amino-6-fluoro-N-(4-(oxetan-3-yloxy)pyridin-3-yl)pyrazolo[1,5-a]pyrimidine-3-carboxamide]",+++ (Compounds with a Cisplatin sensitization value of <0.02 μM are marked with “+++.”)

# Molecular target: full-length ATR (Homo sapiens (Human), UniProt Q13535)
# Test: ATR inhibition assay (radioactive-phosphate incorporation)
# Assay type: biochemical
# Details: Ki(app), 5 nM full-length ATR, 10 μM ATP, 25° C.
# Method: Compounds were screened for their ability to inhibit ATR kinase using a radioactive-phosphate incorporation assay. Assays were carried out in a mixture of 50 mM Tris/HCl (pH 7.5), 10 mM MgCl2 and 1 mM DTT. Final substrate concentrations were 10 μM [γ-33P]ATP (3 mCi 33P ATP/mmol ATP, Perkin Elmer) and 800 μM target peptide ([…]) (SEQ ID NO:1).
# Assays were carried out at 25° C. in the presence of 5 nM full-length ATR. An assay stock buffer solution was prepared containing all of the reagents listed above, with the exception of ATP and the test compound of interest. 13.5 μL of the stock solution was placed in a 96 well plate followed by addition of 2 μL of DMSO stock containing serial dilutions of the test compound (typically starting from a final concentration of 15 μM with 3-fold serial dilutions) in duplicate (final DMSO concentration 7%). The plate was pre-incubated for 10 minutes at 25° C. and the reaction initiated by addition of 15 μL [γ-33P]ATP (final concentration 10 μM).
# The reaction was stopped after 24 hours by the addition of […] phosphoric acid containing 2 mM ATP. […]
# After removing mean background values for all of the data points, Ki(app) data were calculated from non-linear regression analysis of the initial rate data using the Prism software package (GraphPad Prism version 3.0 cx for Macintosh, GraphPad Software, San Diego Calif., USA).
# Chain of full-length ATR (Q13535 whole entry): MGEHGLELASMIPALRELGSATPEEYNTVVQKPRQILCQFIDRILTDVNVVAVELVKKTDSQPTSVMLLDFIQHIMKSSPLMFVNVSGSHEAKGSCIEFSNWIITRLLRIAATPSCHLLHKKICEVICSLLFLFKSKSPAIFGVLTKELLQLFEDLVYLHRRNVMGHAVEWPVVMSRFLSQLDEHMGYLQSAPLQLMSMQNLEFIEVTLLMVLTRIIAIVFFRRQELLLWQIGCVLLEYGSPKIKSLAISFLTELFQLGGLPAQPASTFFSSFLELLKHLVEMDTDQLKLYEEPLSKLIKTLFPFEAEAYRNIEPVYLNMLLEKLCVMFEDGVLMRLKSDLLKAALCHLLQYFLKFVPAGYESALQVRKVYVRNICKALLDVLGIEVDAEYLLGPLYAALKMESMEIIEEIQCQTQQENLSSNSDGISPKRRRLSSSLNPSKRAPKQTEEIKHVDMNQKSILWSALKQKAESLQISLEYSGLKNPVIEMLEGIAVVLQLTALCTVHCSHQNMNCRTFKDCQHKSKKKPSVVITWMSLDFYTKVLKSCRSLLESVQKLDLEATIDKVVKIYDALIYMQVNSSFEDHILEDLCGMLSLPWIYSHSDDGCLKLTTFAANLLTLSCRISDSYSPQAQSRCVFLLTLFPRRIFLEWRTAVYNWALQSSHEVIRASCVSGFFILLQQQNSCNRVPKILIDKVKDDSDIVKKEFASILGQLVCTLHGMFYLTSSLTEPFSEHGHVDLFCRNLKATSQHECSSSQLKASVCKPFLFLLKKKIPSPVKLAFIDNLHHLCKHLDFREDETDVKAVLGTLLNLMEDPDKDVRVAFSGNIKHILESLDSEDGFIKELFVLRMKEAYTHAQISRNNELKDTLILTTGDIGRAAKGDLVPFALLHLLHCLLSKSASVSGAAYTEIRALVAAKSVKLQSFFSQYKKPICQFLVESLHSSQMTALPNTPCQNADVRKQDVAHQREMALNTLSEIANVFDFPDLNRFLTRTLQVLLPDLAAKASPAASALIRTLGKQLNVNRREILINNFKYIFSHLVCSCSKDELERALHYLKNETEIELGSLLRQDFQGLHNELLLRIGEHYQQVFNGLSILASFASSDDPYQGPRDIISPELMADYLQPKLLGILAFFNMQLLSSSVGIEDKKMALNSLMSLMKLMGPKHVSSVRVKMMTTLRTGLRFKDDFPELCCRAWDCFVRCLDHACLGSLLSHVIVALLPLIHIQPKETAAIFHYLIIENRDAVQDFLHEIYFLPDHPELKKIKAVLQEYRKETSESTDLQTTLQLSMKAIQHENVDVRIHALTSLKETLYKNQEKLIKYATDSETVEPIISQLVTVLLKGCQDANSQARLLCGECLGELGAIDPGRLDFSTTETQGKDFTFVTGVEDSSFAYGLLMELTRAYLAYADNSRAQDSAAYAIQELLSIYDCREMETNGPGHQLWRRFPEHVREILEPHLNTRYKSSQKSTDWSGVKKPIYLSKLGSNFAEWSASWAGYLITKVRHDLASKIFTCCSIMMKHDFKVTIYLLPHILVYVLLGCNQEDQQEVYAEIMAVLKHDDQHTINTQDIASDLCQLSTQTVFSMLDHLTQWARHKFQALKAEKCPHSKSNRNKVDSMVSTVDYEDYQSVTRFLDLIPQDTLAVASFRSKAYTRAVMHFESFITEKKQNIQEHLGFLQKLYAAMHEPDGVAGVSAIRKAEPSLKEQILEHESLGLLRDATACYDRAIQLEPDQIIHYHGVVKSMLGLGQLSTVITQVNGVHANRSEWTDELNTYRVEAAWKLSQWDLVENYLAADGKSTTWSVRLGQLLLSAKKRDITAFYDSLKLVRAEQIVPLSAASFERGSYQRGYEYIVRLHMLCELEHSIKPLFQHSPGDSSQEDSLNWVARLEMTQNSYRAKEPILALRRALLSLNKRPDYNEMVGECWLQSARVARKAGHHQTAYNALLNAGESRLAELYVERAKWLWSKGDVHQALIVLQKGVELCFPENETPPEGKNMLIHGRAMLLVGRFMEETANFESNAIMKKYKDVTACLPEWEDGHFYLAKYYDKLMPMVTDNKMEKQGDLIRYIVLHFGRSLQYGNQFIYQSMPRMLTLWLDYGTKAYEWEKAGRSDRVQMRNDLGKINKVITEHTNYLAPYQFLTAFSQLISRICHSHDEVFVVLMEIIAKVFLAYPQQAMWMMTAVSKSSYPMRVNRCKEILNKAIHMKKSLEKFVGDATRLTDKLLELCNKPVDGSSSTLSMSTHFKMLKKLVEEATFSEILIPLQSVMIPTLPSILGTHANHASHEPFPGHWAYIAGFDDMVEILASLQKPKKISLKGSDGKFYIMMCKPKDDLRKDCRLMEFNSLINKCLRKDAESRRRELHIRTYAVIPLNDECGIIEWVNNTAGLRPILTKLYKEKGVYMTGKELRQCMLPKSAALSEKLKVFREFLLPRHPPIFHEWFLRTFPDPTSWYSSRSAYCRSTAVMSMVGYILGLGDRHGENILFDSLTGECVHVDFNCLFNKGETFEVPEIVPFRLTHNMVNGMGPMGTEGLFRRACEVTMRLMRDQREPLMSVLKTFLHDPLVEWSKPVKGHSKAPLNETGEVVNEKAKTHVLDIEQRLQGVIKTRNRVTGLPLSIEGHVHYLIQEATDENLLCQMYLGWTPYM
row,Structure (SMILES),Ki [nM]
1,"Nc1nn2cc(F)cnc2c1C(=O)Nc1cnccc1OC1CC[S+]([O-])CC1 (stereo not drawn) [I-O-44, 2-amino-6-fluoro-N-(4-((1-oxidotetrahydro-2H-thiopyran-4-yl)oxy)pyridin-3-yl)pyrazolo[1,5-a]pyrimidine-3-carboxamide]",10 to 1000
